Literature values as cited in paper PMC7269146, “Jingzhaotoxin-X, a gating modifier of Kv4.2 and Kv4.3 potassium channels purified from the venom of the Chinese tarantula Chilobrachys jingzhao” (The Journal of Venomous Animals and Toxins Including …, 2020).
Entries after “also recorded” stand apart in the source; their conditions may differ. Read-outs that look alike come from different tables or passages of the source.

Columns and labels:
Kv2 channels = details: ref [40], [41]; cited from earlier work
Kv2.1 channels = details: cited from earlier work
Description: (§1) Table 1. Characterization of the main peptides from C. jingzhao venom | column: Main pharmacological activity || The tarantula Chilobrachys jingzhao is one of the largest venomous spiders in the south of China. Peptide toxins purified from spider venom provide crucial approaches to investigating Kv4 channels. […] Jingzhaotoxin-XI ...

Nav1.5 channels = details: cited from earlier work
Description: (§2) Table 1. Characterization of the main peptides from C. jingzhao venom | column: Main pharmacological activity

rat cardiac Nav channels = details: ref [10]; cited from earlier work
Description: as §2

Nav channels = details: cited from earlier work
Description: as §2

Kv4.3 or Kv4.2 = details: ref [14], [19]-[21]; cited from earlier work
Description: The tarantula Chilobrachys jingzhao is one of the largest venomous spiders in the south of China. Peptide toxins purified from spider venom provide crucial approaches to investigating Kv4 channels. […] Jingzhaotoxin-XI ...

Kv4 channels = details: cited from earlier work
Description: as §1

Kv4.1 channels = details: ref [17]; cited from earlier work
Description: as §1

Kv channel = details: ref [18]; cited from earlier work
Description: as §2

calcium channel = details: ref [35]; cited from earlier work
Description: A total of 6 cysteine residues were highly conserved among each spider toxin at specific locations.

For “HaTx1: gating-modifying toxin (ECRYLFGGCKTTSDCCKHLGCKFRDKYCAWDFTFS; UniProt P56852 50-84, looked up)”, the “suppression of Kv2 channels” value (Kv2 channels) is given as “suppressing Kv2 channels”.
For Jingzhaotoxin-I, the “Main pharmacological activity, Kv2.1” value (Kv2.1 channels; ref [7]-[9]) is listed as “Inhibits Nav1.5 channels inactivation and Kv2.1 channels” and the “Main pharmacological activity, Nav1.5” value (Nav1.5 channels; ref [7]-[9]) is listed as “Inhibits Nav1.5 channels inactivation and Kv2.1 channels”.
For Jingzhaotoxin-II, the “Main pharmacological activity, Nav1.5” value (Nav1.5 channels; ref [10]) is given as “Inhibits inactivation of both rat cardiac Nav channels and Nav1.5 channels” and the “Main pharmacological activity, rat cardiac Nav channels” value (rat cardiac Nav channels) is given as “Inhibits inactivation of both rat cardiac Nav channels and Nav1.5 channels”.
For Jingzhaotoxin-III, the “Main pharmacological activity, Kv2.1” value (Kv2.1 channels; ref [11], [12]) is given as “Inhibits Nav1.5 and Kv2.1 channels” and the “Main pharmacological activity, Nav1.5” value (Nav1.5 channels; ref [11], [12]) is given as “Inhibits Nav1.5 and Kv2.1 channels”.
For Jingzhaotoxin-IV, the “Main pharmacological activity, Nav channels” value (Nav channels; ref [13]) is listed as “Modifies the activation and inactivation of Nav channels”.
In the case of Jingzhaotoxin-V, the “inhibition of Kv4.3 or Kv4.2” value (Kv4.3 or Kv4.2) is given as “inhibit either Kv4.3 or Kv4.2, or both of these channels”, the “Main pharmacological activity, Kv4 channels” value (Kv4 channels) is given as “Inhibits both Nav and Kv4 channels” and the “Main pharmacological activity, Nav channels” value (Nav channels) is given as “Inhibits both Nav and Kv4 channels”.
For Jingzhaotoxin-XI, the “Main pharmacological activity, Kv2.1” value (Kv2.1 channels; ref [15], [16]) is listed as “Inhibits Nav1.5 inactivation and Kv2.1 channels” and the “Main pharmacological activity, Nav1.5” value (Nav1.5 channels; ref [15], [16]) is listed as “Inhibits Nav1.5 inactivation and Kv2.1 channels”.
In the case of Jingzhaotoxin-XII, the “Main pharmacological activity, Kv4.1” value (Kv4.1 channels) is given as “specific Kv4.1 channel-gating modifier; also recorded: Inhibits Kv4.1 channels”.
For Jingzhaotoxin-XIII, the “Main pharmacological activity, Kv channel” value (Kv channel) is listed as “Modifies Kv channel gating”.
For “SNX-482 (GVDKAGCRYMFGGCSVNDDCCPRLGCHSLFSYCAWDLTFSD; UniProt P56854 1-41, looked up)”, the “inhibition of Kv4.3 or Kv4.2” value (Kv4.3 or Kv4.2) is given as “inhibit either Kv4.3 or Kv4.2, or both of these channels”.
In the case of ω-grammotoxin SIA, the “activity on calcium channel” value (calcium channel) is listed as “blocker of calcium channel”.
